Tests used:
Format in all cases: biochemical
[1] = biological target: T1, B-Raf (Homo sapiens, UniProt P15056); assay: AlphaScreen kinase assay, B-Raf; details: read-out: IC50, activity toward kinase B-Raf
T1 construct: purchased Upstate Biotechnology

[2] = biological target: T2, B-Raf V600E (Homo sapiens, UniProt P15056, V600E); assay: AlphaScreen kinase assay, B-Raf V600E; details: read-out: IC50, activity toward kinase B-Raf V600E
T2 construct: P4254. pFastBacBD-CDC37 BRAF D437-K722-X, V600E; His6 with pFastBac HT leader (TEV site) (N); made in house; host or cells: Sf9 (baculovirus; chaperone CDC37 co-expressed)
T2 sequence (P15056 with tags, fused parts or gaps V600E): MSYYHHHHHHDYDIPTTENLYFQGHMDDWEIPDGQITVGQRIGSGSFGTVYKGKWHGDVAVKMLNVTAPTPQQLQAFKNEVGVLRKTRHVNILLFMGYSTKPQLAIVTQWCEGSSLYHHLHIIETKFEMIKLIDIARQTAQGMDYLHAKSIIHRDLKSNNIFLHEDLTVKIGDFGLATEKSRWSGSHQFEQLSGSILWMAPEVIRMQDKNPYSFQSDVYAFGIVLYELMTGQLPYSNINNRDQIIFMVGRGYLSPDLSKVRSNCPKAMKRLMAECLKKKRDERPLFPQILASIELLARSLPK

[3] = biological target: T3, c-Raf-1 (Homo sapiens, UniProt P04049); assay: AlphaScreen kinase assay, c-Raf-1; details: read-out: IC50, activity toward kinase c-Raf-1
T3 construct: purchased Upstate Biotechnology
T3 sequence (P04049 whole entry): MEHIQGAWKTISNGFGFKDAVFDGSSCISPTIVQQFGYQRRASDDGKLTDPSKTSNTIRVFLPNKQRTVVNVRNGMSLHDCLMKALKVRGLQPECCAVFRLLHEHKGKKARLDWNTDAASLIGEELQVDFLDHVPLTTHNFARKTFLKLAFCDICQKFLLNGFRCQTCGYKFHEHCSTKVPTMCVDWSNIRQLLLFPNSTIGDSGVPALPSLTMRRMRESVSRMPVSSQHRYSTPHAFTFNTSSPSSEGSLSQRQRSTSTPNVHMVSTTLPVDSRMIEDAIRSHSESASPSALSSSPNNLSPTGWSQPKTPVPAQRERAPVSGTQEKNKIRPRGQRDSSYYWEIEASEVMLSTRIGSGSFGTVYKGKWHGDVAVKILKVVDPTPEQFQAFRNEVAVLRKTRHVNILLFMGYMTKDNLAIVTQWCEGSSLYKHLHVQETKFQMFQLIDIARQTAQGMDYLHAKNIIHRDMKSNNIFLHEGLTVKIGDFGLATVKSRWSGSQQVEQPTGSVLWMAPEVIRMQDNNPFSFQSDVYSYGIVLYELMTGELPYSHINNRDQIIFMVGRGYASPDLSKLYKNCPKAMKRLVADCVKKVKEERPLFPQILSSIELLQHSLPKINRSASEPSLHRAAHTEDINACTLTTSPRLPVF

[4] = biological target: T4, FGFR1 (Homo sapiens, UniProt P11362, C488A/C584S); assay: AlphaScreen kinase assay, FGFR1; details: read-out: IC50, activity toward kinase FGFR
T4 construct: P1351.pET N6 BI-PTP FGFR A458-E765-X C488A, C584S; made in house; host or cells: E. coli (PTP1B co-expressed)
T4 sequence (P11362 458-765 C488A/C584S): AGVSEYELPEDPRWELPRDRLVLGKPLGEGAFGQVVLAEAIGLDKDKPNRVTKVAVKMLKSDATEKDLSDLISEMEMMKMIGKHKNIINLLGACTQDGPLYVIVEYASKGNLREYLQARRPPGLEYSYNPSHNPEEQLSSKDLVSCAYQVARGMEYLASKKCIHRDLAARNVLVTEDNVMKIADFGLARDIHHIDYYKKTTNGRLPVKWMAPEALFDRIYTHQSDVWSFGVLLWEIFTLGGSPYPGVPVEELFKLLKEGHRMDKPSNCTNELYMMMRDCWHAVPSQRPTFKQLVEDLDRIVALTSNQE

[5] = biological target: T5, Jnk3 (Homo sapiens, UniProt P53779); assay: AlphaScreen kinase assay, Jnk3; details: read-out: IC50, activity toward kinase Jnk3
T5 construct: purchased Upstate Biotechnology
T5 sequence (P53779 whole entry): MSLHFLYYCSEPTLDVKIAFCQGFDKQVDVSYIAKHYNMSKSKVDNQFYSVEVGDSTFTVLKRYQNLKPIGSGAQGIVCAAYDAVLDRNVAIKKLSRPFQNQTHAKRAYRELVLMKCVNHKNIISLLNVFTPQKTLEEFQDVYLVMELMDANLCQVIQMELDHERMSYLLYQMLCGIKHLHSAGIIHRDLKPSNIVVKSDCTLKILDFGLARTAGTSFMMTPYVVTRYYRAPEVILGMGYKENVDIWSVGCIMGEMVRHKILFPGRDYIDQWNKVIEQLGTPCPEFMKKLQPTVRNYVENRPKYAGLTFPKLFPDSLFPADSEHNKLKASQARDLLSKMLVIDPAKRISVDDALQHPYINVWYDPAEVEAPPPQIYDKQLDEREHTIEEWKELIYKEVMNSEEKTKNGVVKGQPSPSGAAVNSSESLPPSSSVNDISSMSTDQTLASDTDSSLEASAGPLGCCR

[6] = biological target: T6, Kdr (Homo sapiens, UniProt P35968); assay: Z'-Lyte FRET kinase assay (Invitrogen), Kdr; details: read-out: IC50, activity toward kinase Kdr
T6 construct: purchased Invitrogen (assay run by Invitrogen)

[7] = biological target: T7, Met (Homo sapiens, UniProt P08581); assay: AlphaScreen kinase assay, Met; details: read-out: IC50, activity toward kinase Met
T7 construct: P1818.pETN6 BI-PTP MET G1056-G1364-X WT; His6 (N); made in house; host or cells: E. coli (PTP1B co-expressed)
T7 sequence (P08581 with tags, fused parts or gaps): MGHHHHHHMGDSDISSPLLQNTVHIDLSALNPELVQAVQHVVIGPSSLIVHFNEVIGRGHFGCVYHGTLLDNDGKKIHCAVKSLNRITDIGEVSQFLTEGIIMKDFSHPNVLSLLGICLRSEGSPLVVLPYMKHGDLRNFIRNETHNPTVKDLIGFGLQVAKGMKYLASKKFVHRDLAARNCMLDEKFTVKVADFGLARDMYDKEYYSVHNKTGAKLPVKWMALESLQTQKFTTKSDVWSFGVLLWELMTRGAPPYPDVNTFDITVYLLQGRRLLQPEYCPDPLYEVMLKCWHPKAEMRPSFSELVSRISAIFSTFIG
Source text: (§1) AlphaScreen assay was used to screen additional kinases. The assay is similarly dependent on the phosphorylation of a peptide substrate. In this assay, an antibody that recognizes phosphorylated substrate is bound to an acceptor bead. The peptide substrate is attached to biotin, which binds to a donor head that contains streptavidin. Thus phosphorylated substrate is bound by antibody and streptavidin, bringing the donor and acceptor heads into close proximity when kinase is not inhibited. The donor produces singlet oxygen which results in emission from the acceptor when they are in close proximity. Conversely, when kinase is inhibited, the donor and acceptor beads are not associated and the emission from the acceptor is reduced.
(§2) AlphaScreen assays were done using compounds dissolved in DMSO to a concentration of 20 mM. The compounds were diluted accordingly to the desired final concentrations in each sample well, using 1:3 serial dilution for a total of 8 concentration points.

[8] = biological target: T8, Ret (Homo sapiens, UniProt P07949); assay: AlphaScreen kinase assay, Ret; details: read-out: IC50, activity toward kinase Ret
T8 construct: P1378.pET-SF BI-PTP RET H661-R1012 HIS; made in house
T8 sequence (P07949 with tags, fused parts or gaps): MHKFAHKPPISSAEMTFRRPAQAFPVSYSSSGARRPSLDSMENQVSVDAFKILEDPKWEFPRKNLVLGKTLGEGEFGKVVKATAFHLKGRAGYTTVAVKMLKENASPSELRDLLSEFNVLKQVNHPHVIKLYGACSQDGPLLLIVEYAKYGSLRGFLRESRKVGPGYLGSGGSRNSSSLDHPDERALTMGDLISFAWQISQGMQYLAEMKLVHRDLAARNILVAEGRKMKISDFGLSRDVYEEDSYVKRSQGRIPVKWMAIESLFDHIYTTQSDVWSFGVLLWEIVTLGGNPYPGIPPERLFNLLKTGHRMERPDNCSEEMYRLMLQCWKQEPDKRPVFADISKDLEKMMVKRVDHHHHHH

[9] = biological target: T9, Stk6 (Homo sapiens, UniProt O14965); assay: Z'-Lyte FRET kinase assay (Invitrogen), Stk6; details: read-out: IC50, activity toward kinase Stk6
T9 construct: purchased Invitrogen (Carlsbad, Calif.), screening service
T9 sequence (O14965 1-403): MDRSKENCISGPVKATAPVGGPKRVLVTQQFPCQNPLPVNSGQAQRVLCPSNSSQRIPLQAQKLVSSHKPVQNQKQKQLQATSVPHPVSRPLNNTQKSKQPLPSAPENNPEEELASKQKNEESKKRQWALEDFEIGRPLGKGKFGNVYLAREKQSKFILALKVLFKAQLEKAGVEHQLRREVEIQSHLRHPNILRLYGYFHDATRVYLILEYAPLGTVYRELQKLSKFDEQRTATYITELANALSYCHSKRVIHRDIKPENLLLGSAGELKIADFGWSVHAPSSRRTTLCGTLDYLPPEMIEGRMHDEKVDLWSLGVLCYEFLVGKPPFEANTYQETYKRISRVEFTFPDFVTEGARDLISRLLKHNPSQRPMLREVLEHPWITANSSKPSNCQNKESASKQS

[10] = biological target: T10, Flt1 (Homo sapiens, UniProt P17948); assay: AlphaScreen kinase assay, Flt1; details: read-out: IC50, activity toward kinase Flt1
T10 construct: P1826.pETN6 BI-PTP FLT1 M799-D1165-X WT; His6 (N); made in house; host or cells: E. coli (PTP1B co-expressed)
T10 sequence (P17948 with tags, fused parts or gaps): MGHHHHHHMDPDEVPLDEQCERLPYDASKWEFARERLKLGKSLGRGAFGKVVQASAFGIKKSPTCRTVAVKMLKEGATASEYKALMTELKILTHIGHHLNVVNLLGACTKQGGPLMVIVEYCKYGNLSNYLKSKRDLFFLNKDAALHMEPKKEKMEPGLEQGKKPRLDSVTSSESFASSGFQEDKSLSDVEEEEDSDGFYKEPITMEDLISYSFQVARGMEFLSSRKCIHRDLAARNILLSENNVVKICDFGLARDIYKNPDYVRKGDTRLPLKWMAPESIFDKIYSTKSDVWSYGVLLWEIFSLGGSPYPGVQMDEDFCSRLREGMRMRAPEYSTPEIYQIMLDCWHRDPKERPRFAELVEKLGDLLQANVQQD

[11] = biological target: T11, Fms (Homo sapiens, UniProt P07333); assay: AlphaScreen kinase assay, Fms; details: read-out: IC50, activity toward kinase Fms
T11 construct: purchased Upstate Biotechnology
T11 sequence (P07333 20-972): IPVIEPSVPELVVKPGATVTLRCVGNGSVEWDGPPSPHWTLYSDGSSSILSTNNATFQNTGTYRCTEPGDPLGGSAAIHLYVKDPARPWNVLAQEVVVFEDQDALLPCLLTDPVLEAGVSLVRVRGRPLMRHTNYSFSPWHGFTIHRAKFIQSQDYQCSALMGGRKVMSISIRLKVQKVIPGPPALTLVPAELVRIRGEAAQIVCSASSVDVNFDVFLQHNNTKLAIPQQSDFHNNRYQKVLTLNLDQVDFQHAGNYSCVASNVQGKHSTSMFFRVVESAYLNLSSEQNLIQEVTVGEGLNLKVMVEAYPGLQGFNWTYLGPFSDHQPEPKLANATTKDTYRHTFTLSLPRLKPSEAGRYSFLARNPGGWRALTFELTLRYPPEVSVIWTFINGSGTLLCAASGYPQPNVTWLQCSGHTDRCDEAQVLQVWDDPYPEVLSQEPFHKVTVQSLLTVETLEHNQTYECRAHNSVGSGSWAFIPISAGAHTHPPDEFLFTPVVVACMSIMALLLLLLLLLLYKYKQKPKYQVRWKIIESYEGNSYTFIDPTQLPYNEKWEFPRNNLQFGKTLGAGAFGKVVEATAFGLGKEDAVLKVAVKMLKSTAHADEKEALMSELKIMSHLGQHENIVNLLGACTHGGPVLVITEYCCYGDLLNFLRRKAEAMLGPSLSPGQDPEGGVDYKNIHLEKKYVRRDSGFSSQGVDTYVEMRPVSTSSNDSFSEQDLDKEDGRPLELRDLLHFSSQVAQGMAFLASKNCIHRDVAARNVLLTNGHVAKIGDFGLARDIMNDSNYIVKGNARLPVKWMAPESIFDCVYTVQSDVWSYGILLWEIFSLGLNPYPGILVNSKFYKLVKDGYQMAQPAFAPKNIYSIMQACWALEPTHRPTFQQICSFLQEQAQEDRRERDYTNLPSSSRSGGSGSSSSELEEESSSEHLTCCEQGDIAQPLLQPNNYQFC

[12] = biological target: T12, Kit (Homo sapiens, UniProt P10721); assay: AlphaScreen kinase assay, Kit; details: read-out: IC50, activity toward kinase Kit
T12 construct: P1332.N6 BI PTP KIT M552-K948-X COD; His6 (N); made in house; host or cells: E. coli (PTP1B co-expressed)
T12 sequence (P10721 with tags, fused parts or gaps): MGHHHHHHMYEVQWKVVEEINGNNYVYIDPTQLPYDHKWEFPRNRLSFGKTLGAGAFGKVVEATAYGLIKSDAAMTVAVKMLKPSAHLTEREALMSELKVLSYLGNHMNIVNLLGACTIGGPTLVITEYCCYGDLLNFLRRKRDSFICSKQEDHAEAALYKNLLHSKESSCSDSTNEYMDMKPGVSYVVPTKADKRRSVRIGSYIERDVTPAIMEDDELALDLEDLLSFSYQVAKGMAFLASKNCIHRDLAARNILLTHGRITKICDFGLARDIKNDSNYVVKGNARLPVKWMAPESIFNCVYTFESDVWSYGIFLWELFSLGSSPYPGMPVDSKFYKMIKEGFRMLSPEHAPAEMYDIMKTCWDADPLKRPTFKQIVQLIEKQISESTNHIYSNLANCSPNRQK
Protocol: AlphaScreen assays were done using compounds dissolved in DMSO to a concentration of 20 mM. The compounds were diluted accordingly to the desired final concentrations in each sample well, using 1:3 serial dilution for a total of 8 concentration points. Plates were prepared such that each kinase reaction is 20 μl in 1× kinase buffer, 5% DMSO and 10 μM ATP. After incubation of the kinase reaction for 1 hour at room temperature, 5 μl of donor beads in stop buffer (50 mM EDTA in 1× kinase buffer) was added, the sample was mixed and incubated for 20 minutes at room temperature before adding 5 μl of acceptor beads in stop buffer. The samples were incubated for 60 minutes at room temperature and the signal per well was read on AlphaQuest reader.

[13] = biological target: T13, Abl (Homo sapiens, UniProt P00519); assay: AlphaScreen kinase assay, Abl; details: read-out: activity toward kinase Abl, IC50
T13 construct: P1121. pET-SPEC BI-PTP Abl G227-V515-X; His6 (N); made in house; host or cells: E. coli (PTP1B co-expressed)
T13 sequence (P00519 with tags, fused parts or gaps): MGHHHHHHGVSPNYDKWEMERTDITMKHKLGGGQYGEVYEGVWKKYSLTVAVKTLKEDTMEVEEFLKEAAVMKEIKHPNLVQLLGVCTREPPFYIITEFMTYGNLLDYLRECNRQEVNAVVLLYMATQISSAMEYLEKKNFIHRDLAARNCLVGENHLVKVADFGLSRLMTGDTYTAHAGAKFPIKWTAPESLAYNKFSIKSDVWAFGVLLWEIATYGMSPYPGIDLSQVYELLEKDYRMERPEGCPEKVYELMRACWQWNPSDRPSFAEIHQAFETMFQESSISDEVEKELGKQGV
Source text: as §1, §2

[14] = biological target: MAP4K4 (Homo sapiens, UniProt O95819); assay: AlphaScreen kinase assay, MAP4K4; details: read-out: IC50, activity toward kinase MAP4K4
[15] = biological target: T14, Jnk1 (Homo sapiens, UniProt P45983); assay: AlphaScreen kinase assay, Jnk1; details: read-out: IC50, activity toward kinase Jnk1
T14 construct: purchased Upstate Biotechnology
T14 sequence (P45983 whole entry): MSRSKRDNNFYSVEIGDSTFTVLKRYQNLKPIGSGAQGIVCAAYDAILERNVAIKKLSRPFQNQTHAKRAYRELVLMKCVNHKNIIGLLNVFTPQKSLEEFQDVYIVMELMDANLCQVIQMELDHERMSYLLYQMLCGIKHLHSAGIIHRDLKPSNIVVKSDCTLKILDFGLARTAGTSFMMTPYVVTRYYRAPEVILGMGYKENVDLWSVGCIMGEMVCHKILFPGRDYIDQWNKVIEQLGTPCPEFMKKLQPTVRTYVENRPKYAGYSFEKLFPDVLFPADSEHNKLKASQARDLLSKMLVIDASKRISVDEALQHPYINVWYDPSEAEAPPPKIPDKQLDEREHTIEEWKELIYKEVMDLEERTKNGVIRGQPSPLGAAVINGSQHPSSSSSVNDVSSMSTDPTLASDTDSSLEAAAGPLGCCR

[16] = biological target: T15, Fak (Homo sapiens, UniProt Q05397); assay: AlphaScreen kinase assay, Fak; details: read-out: IC50, activity toward kinase Fak
T15 construct: P1358.pFastBacHtb FAK S411-Q686-X; His6 with pFastBacHTb leader (TEV site) (N); made in house; host or cells: Sf9 (baculovirus)
T15 sequence (Q05397 411-686): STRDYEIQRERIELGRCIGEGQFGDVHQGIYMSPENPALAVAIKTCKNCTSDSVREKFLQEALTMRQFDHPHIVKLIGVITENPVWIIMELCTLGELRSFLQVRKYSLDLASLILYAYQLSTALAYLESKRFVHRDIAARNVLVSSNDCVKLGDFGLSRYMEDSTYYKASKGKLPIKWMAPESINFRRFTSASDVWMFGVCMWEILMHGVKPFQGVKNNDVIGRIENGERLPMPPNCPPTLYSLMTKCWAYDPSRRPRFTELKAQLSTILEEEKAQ

[17] = biological target: T16, Src (Homo sapiens, UniProt P12931); assay: AlphaScreen kinase assay, Src; details: read-out: IC50, activity toward kinase Src
T16 construct: P1144. pET-N6 BI-PTP SRC V86-L536-X; made in house

Measured: IC50

T1 sequence (P15056 whole entry): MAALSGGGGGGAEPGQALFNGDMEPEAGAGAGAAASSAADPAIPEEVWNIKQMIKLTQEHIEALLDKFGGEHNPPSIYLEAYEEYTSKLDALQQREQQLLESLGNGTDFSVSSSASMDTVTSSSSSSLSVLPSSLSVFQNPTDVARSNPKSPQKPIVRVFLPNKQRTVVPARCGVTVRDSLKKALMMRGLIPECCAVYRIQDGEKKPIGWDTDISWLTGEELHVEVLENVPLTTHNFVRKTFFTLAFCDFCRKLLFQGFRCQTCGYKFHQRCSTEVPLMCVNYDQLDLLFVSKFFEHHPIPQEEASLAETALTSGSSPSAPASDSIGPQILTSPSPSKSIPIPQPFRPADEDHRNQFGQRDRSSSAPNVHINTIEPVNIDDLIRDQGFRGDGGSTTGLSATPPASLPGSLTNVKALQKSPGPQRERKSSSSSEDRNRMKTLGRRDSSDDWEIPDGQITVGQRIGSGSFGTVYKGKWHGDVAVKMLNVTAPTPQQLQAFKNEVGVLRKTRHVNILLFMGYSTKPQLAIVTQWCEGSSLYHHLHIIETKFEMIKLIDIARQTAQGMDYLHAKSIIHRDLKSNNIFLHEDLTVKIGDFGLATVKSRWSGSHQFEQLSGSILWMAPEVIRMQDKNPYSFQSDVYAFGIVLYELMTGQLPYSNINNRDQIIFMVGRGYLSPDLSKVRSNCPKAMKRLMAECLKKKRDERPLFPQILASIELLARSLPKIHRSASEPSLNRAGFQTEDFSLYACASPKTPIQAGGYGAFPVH

O=C(c1cccc(Cl)c1F)c1c[nH]c2ncc(-c3cccnc3)cc12 [Compound P-0165, (3-Chloro-2-fluoro-phenyl)-(5-pyridin-3-yl-1H-pyrrolo[2,3-b]pyridin-3-yl)-methanone]
≤ 10 µM: [1] | [2] | [3] | [4] | [5] | [6] | [7] | [8]

Fc1ccc(-c2ccnc3[nH]cc(Sc4cccs4)c23)cc1 [Compound P-0419]
≤ 10 µM: [7] | [9]

O=C(Nc1ccccc1)Nc1ccc(Cc2c[nH]c3ncccc23)cc1 [Compound P-0542]
≤ 10 µM: [3] | [7] | [8]

O=C(NCc1ccccn1)NCc1c[nH]c2ncccc12 [Compound P-0761]
≤ 10 µM: [7] | [8]

CCCS(=O)(=O)Nc1ccc(F)c(C(=O)c2c[nH]c3ncc(Br)cc23)c1F [Compound P-0773, propane-1-sulfonic acid [3-(5-bromo-1H-pyrrolo[2,3-b]pyridine-3-carbonyl)-2,4-difluoro-phenyl]-amide]
≤ 10 µM: [1] | [2] | [3] | [4] | [10] | [11] | [12] | [7]

Cc1cc(C(=O)c2c[nH]c3ncc(-c4cccnc4)cc23)n(C)n1 [Compound P-0800]
≤ 10 µM: [13] | [12] | [14]

Oc1ncc(F)c(Cc2c[nH]c3ncc(-c4ccsc4)cc23)c1F [Compound P-0822]
≤ 10 µM: [5] | [7] | [8]

CC(=O)c1cccc(Nc2cnc3[nH]ccc3c2)c1 [Compound P-1008]
≤ 10 µM: [2] | [4] | [10] | [11] | [15] | [5] | [12] | [7]

CC(C)(C)c1ccc(Nc2cnc3[nH]ccc3c2)cc1 [Compound P-1023]
≤ 10 µM: [6] | [7]

Cc1ccc(Nc2cnc3[nH]ccc3c2)cc1 [Compound P-1037]
≤ 10 µM: [7]

COc1cc(Nc2cnc3[nH]ccc3c2)cc(OC)c1OC [Compound P-1092]
≤ 10 µM: [7]

CCOc1ccccc1-c1ccnc2[nH]ccc12 [Compound P-1114]
≤ 10 µM: [16] | [7]

Cc1cccc(-c2c(CSCc3ccccc3)[nH]c3ncccc23)c1 [Compound P-1132]
≤ 10 µM: [7]

COC(=O)COc1ccc(F)c(Cc2c[nH]c3ncc(-c4cccnc4)cc23)c1F [Compound P-1465, [2,4-Difluoro-3-(5-pyridin-3-yl-1H-pyrrolo[2,3-b]pyridin-3-ylmethyl)-phenoxy]-acetic acid methyl ester]
≤ 10 µM: [2] | [4] | [10] | [11] | [15] | [5] | [12] | [7]

CS(=O)(=O)Nc1cccc(-c2cnc3[nH]cc(C(=O)c4c(F)ccc(OC(F)F)c4F)c3c2)c1 [Compound P-1527, N-{3-[3-(3-Difluoromethoxy-2,6-difluoro-benzoyl)-1H-pyrrolo[2,3-b]pyridin-5-yl]-phenyl}-methanesulfonamide]
≤ 10 µM: [1] | [2] | [4] | [10] | [11] | [12] | [7] | [17]
